Measured values from US6348614B1 (priority 1996, dated 2002).
Read-outs that look alike come from different tables or passages of the source.

What was measured:
[1] = test system: Erysiphe graminis tritici; assay: Powdery mildew in wheat, additional examples (Table 6); assay type: in vivo; conditions: 500 ppm, 7 days after inoculation
Procedure: Wheat plants (cv.Shafir) were raised from seed in the greenhouse, 30 plants per 0.2 liter pot. When the first leaf was fully developed plants were sprayed with the test solutions and placed in a 20° C. growth cabinet. Two days after spraying plants were dusted with conidia of E. graminis tritict so that about 100 spores were settled on 1 cm^2 of leaf area (both surfaces). […] Control efficacy was calculated relative to number of colonies developed on the control-inoculated untreated plants.

Plasmopara viticola = assay: Downy mildew in grapes (Table 9); assay type: in vivo; conditions: 500 ppm, 10 days after inoculation
Procedure: Two days after spraying plants were inoculated with sporangial suspension of P.viticola ([…]) onto their lower leaf surface and placed in 100% relative humidity for 20 hr. The plants were then placed in a growth cabinets 20° C. for 10 days. Disease development was assessed according to the abaxial leaf surfaces area covered with fungal sporulation.

[2] = test system: Pseudoperonospora cubensis; assay: Downy mildew in melon (Table 7); conditions: 500 ppm, 7 days after inoculation
Procedure: Cucumber plants (cv,Dlila) and melon plants (cv.Ein Dor) were raised from seeds in 0.2 liter pots in the greenhouse. At 3 weeks after sowing when had 3 true leaves they were inoculated with sporangial suspension (1000 sporangia/ml) of P.cubensis (resistant to metalaxyl) and placed in 100% relative humidity in the dark for 20 hr. They were then place in a 20° C. growth cabinet for 7 days and assessed for disease development. Percentage leaf area covered with disease symptoms was evaluated and control efficacy was calculated relative to control inoculated plants.

Phytophthora infestans [3] = assay type: in vivo
Phytophthora infestans [4] = assay type: in vivo; remark: listed apart in the source
[5] = potato, 2000 ppm, 3 days after inoculation
[6] = potato, 2000 ppm, 4 days after inoculation
[7] = potato, 2000 ppm, 6 days after inoculation
[8] = potato, 2000 ppm, 8 days after inoculation

Molecule: CCCCCCCCOC(=O)CC(C)NC(=O)c1ccc(C)c(C)c1 (stereo not shown) [compound 54, D,L N-3,4-dimethylbenzoyl-3-aminobutyric acid octyl ester]
- Control efficacy (%) 7d [1]: 69%

Molecule: COc1ccc(C(=O)NC(C)CC(=O)OCCCl)cc1 (stereo not shown) [compound 28, D,L N-4-methoxybenzoyl-3-aminobutyric acid 2-chloroethyl ester]
- Control efficacy % 10d (Plasmopara viticola): 91%

Molecule: CCC(C)OC(=O)CC(C)NS(=O)(=O)c1ccc(C)cc1 (stereo not shown) [compound 20, D,L N-4-methylbenzenesulfonyl-3-aminobutyric 1-methylpropyll ester]
- Control efficacy % 10d (Plasmopara viticola): 100%

Molecule: CCCCCCCOC(=O)CC(C)NS(=O)(=O)c1ccc(C)cc1 (stereo not shown) [compound 34, D,L N-4-methylbenzenesulfonyl-3-aminobutyric acid heptyl ester]
- Control efficacy % 7 days [2]: 70%

Molecule: CCCCCCCOC(=O)CC(C)NC(=O)c1ccc(OC)cc1 (stereo not shown) [compound 12, D,L N-4-methoxybenzoyl-3-aminobutyric acid heptyl ester]
- Control efficacy (%) 7d [1]: 85%
- Control efficacy % 7 days [2]: 100%

Molecule: CCCOC(=O)CC(C)NS(=O)(=O)c1ccccc1 (stereo not shown) [compound 41, D,L N— benzenesulfonyl-3-aminobutyric acid propyl ester]
- Control efficacy (%) 7d [1]: 77%

Molecule: CCCCCCCOC(=O)CC(C)NC(=O)c1ccc(C(C)(C)C)cc1 (stereo not shown) [compound 15, D,L N-4-tertbutylbenzoyl-3-aminobutyric acid heptyl ester]
- Control efficacy (%) 7d [1]: 74%
- Control efficacy % 10d (Plasmopara viticola): 97%
- Control efficacy % 7 days [2]: 97%

Molecule: CCCCC(C)OC(=O)CC(C)NS(=O)(=O)c1ccc(C)cc1 (stereo not shown) [compound 16, D,L N-4-methylbenzenesulfonyl-3-aminobutyric acid i-methylpentyl ester]
- Control efficacy (%) 7d [1]: 83%
- Control efficacy % 10d (Plasmopara viticola): 100%

Molecule: CCCCCCCOC(=O)CC(C)NC(=O)c1ccc(C)c(C)c1 (stereo not shown) [compound 45, D,L N-3,4-dimethylbezoyl-3-aminobutyric acid heptyl ester]
- Control efficacy (%) 7d [1]: 71%

Molecule: CCCCC(C)OC(=O)CC(C)NC(=O)c1ccc(C)cc1 (stereo not shown) [compound 46, D,L N-4-methylbezoyl-3-aminobutyric acid 1-methylpentyl ester]
- Control efficacy (%) 7d [1]: 69%

Molecule: CCCCCCCCCC(C)OC(=O)CC(C)NC(=O)c1ccc(C)cc1 (stereo not shown) [compound 44, D,L N-4-methylbenzoyl-3-aminobutyric acid 1-methyldecanyl ester]
- Control efficacy (%) 7d [1]: 74%

Molecule: CCCCCCCCOC(=O)CC(C)NS(=O)(=O)c1ccccc1 (racemic) [Example 7, DL-N-benzenesulfonyl-3-aminobutyric acid n-octyl ester]
- Control Efficacy % (Phytophthora infestans [3]; [5]): 100%
- Control Efficacy % (Phytophthora infestans [3]; [6]): 100%
- Control Efficacy % (Phytophthora infestans [3]; [7]): 82%
- Control Efficacy % (Phytophthora infestans [3]; [8]): 77%

Molecule: CCCC(C)COC(=O)CC(C)NC(=O)c1c(Cl)cccc1Cl (stereo not shown) [compound 25, D,L N-2,6-dichlorobenzoyl-3-aminobutyric acid 2-methylpentyl ester]
- Control efficacy % 10d (Plasmopara viticola): 100%
- Control efficacy % 7 days [2]: 80%

Molecule: CCCCCC(C)OC(=O)CC(C)NC(=O)c1ccc(C)cc1 (stereo not shown) [compound 43, D,L N-4-methylbenzoyl-3-aminobutyric acid 1-methylhexyl ester]
- Control efficacy (%) 7d [1]: 75%

Molecule: D,L-N-β-methyl benzoyl-3-aminobutyric acid n-octyl ester [Example 3]
- Control Efficacy % (Phytophthora infestans [3]; Potato, 14.8.96, 2000 ppm): 88%
- Control Efficacy % (Phytophthora infestans [3]; Potato, 17.7.096, 500 ppm): 70%
- Control Efficacy % (Phytophthora infestans [3]; Potato, 17.7.096, 2000 ppm): 81%
- Control Efficacy % (Phytophthora infestans [3]; Potato, 26.7.96, 500 ppm): 85%
- Control Efficacy % (Phytophthora infestans [3]; Potato, 26.7.96, 2000 ppm): 92%
- Control Efficacy % (Phytophthora infestans [4]; Tomato, 12.7.96, 2000 ppm): 70%
- Control Efficacy % (Phytophthora infestans [4]; Tomato, 14.8/96, 2000 ppm): 93%

Molecule: CC(CC(=O)OCCC(Cl)(Cl)Cl)NS(=O)(=O)c1ccccc1 (stereo not shown) [compound 19, D,L N-benzenesulfonyl-3-aminobutyric acid 2-(trichloromethyl)ethyl ester]
- Control efficacy % 10d (Plasmopara viticola): 94%
- Control efficacy % 7 days [2]: 83%

Molecule: CCCCCCCOC(=O)CC(C)NC(=O)c1cccc(C)c1 (stereo not shown) [compound 22, D,L N-3-methylbezoyl-3-aminobutyric acid heptyl ester]
- Control efficacy % 7 days [2]: 83%

Molecule: Cc1ccc(C(=O)NC(C)CC(=O)OCCCc2ccccc2)cc1 (stereo not shown) [compound 26, D,L N-4-methylbenzoyl-3-aminobutyric acid 3-phenylpropyl ester]
- Control efficacy % 10d (Plasmopara viticola): 99%

Molecule: CCCCC(C)OC(=O)CC(C)NC(=O)c1ccc(Cl)cc1 (stereo not shown) [compound 18, D,L N-4-cholrobenzoyl-3-aminobutyric acid 1-methylpentyl ester]
- Control efficacy % 10d (Plasmopara viticola): 91%
- Control efficacy % 7 days [2]: 87%

Molecule: CCCCC(C)OC(=O)CC(C)NC(=O)c1cc(C)cc(C)c1 (stereo not shown) [compound 23, D,L N-3,5-dimethylbezoyl-3-aminobutyric acid 1-methylpentyl ester]
- Control efficacy % 10d (Plasmopara viticola): 100%
- Control efficacy % 7 days [2]: 73%

Molecule: CCCCCCCOC(=O)CC(C)NC(=O)c1c(Cl)cccc1Cl (stereo not shown) [compound 24, D,L N-2,6-dichlorobenzoyl-3-aminobutyric acid heptyl ester]
- Control efficacy % 10d (Plasmopara viticola): 100%

Molecule: CC(CC(=O)OCCCc1ccccc1)NS(=O)(=O)c1ccccc1 (stereo not shown) [compound 51, D,L N-benzensulphonyl-3-aminobutyric acid 3-phenylpropyl ester]
- Control efficacy % 10d (Plasmopara viticola): 97%
- Control efficacy % 7 days [2]: 87%

Molecule: CNc1ccccc1C(=O)NC(C)CC(=O)OC (stereo not shown) [compound 47, D,L N-2-methylaminobenzoyl-3-aminobutyric acid methyl ester.]
- Control efficacy (%) 7d [1]: 81%

Molecule: C=CCOC(=O)CC(C)NC(=O)c1ccccc1 (stereo not shown) [compound 42, N-benzoyl-3-aminobutyric acid-2 propenyl ester]
- Control efficacy (%) 7d [1]: 77%

Molecule: CC(CC(=O)OCCCc1ccccc1)NS(=O)(=O)c1ccccc1 (stereo not shown) [compound 17, D,L N-benzenesulfonyl-3-aminobutyric acid 3-phenylpropyl ester]
- Control efficacy % 10d (Plasmopara viticola): 97%
- Control efficacy % 7 days [2]: 87%

Molecule: Cc1ccc(S(=O)(=O)NC(C)CC(=O)OCCBr)cc1 (stereo not shown) [compound 33, D,L N-4-methylbenzenesulfonyl-3-aminobutyric acid 2-bromoethyl ester]
- Control efficacy % 7 days [2]: 75%

Molecule: CCCCCCCOC(=O)CC(C)NC(=O)c1ccc(Cl)cc1 (stereo not shown) [compound 30, D,L N-4-cholrobenzoyl-3-aminobutyric acid heptyl ester]
- Control efficacy % 10d (Plasmopara viticola): 91%

Molecule: Cc1cc(C)cc(C(=O)NC(C)CC(=O)OCCCl)c1 (stereo not shown) [compound 27, D,L N-3,5-dimethylbezoyl-3-aminobutyric acid 2-chloroethyl ester]
- Control efficacy % 10d (Plasmopara viticola): 97%
- Control efficacy % 7 days [2]: 73%

Molecule: CCCCC(C)OC(=O)CC(C)NS(=O)(=O)c1ccc(Cl)cc1 (stereo not shown) [compound 50, D,L N-4-chlorobenzensulfonyl-3-aminobutyric acid 1-methylpentyl ester]
- Control efficacy (%) 7d [1]: 92%

Molecule: N-β-methylbenzoyl-1-aminobutyric acid-1-methyl-1-pentyl ester [Example 10]
- Control Efficacy % (Phytophthora infestans [3]; [5]): 100%
- Control Efficacy % (Phytophthora infestans [3]; [6]): 100%
- Control Efficacy % (Phytophthora infestans [3]; [7]): 97%
- Control Efficacy % (Phytophthora infestans [3]; [8]): 87%

Molecule: CCC(C)OC(=O)CC(C)NS(=O)(=O)c1ccccc1 (stereo not shown) [Example 8, N-benzenesulfonyl-3-aminobutyric acid-sec butyl ester]
- Control Efficacy % (Phytophthora infestans [3]; [5]): 100%
- Control Efficacy % (Phytophthora infestans [3]; [6]): 92%
- Control Efficacy % (Phytophthora infestans [3]; [7]): 87%
- Control Efficacy % (Phytophthora infestans [3]; [8]): 50%

Molecule: CC(CC(=O)Oc1cc(Cl)cc(Cl)c1)NS(=O)(=O)c1ccccc1 (stereo not shown) [compound 53, D,L N-benzensulfonyl-3-aminobutyric acid 3,5-dichlorophenyl ester]
- Control efficacy (%) 7d [1]: 100%

Molecule: CC(CC(=O)OCCC(Cl)(Cl)Cl)NC(=O)c1ccccc1 (stereo not shown) [compound 29, D,L N-benzoyl-3-aminobutyric acid 2-(trichloromethyl)ethyl ester]
- Control efficacy % 10d (Plasmopara viticola): 91%
- Control efficacy % 7 days [2]: 70%

Molecule: CC(CC(=O)OCCCl)NC(=O)c1ccccc1 (racemic) [Example 11, DL-N-benzoyl-3-aminobutyric acid 2-chloroethyl ester]
- Control Efficacy % (Phytophthora infestans [3]; [5]): 95%
- Control Efficacy % (Phytophthora infestans [3]; [6]): 92%
- Control Efficacy % (Phytophthora infestans [3]; [7]): 82%
- Control Efficacy % (Phytophthora infestans [3]; [8]): 70%

Molecule: CCCCCCCOC(=O)CC(C)NC(=O)c1ccccc1C (stereo not shown) [compound 32, D,L N-2-methylbezoyl-3-aminobutyric acid heptyl ester]
- Control efficacy (%) 7d [1]: 83%
- Control efficacy % 7 days [2]: 77%

Molecule: CCCC(C)OC(=O)CC(C)NS(=O)(=O)c1ccccc1 (stereo not shown) [Example 9, N-benzenesulfonyl-3-aminobutyric acid 1-methyl-1-butyl ester]
- Control Efficacy % (Phytophthora infestans [3]; [5]): 99%
- Control Efficacy % (Phytophthora infestans [3]; [6]): 97%
- Control Efficacy % (Phytophthora infestans [3]; [7]): 82%
- Control Efficacy % (Phytophthora infestans [3]; [8]): 62%

Molecule: COCC(C)OC(=O)CC(C)NS(=O)(=O)c1ccccc1 (stereo not shown) [compound 31, D,L N-benzenesulfonyl-3-aminobutyric acid 1-methyl-2-methoxyethyl ester]
- Control efficacy % 10d (Plasmopara viticola): 82%

Molecule: CCCCCCCOC(=O)CC(C)NC(=O)c1c(F)cccc1F (stereo not shown) [compound 14, D,L N-2,6-difluorobenzoyl-3-aminobutyric acid heptyl ester]
- Control efficacy % 10d (Plasmopara viticola): 100%

Molecule: CCCCCCCOC(=O)CC(C)NC(=O)c1cc(C)cc(C)c1 (stereo not shown) [compound 13, D,L N-3,5-dimethylbezoyl-3-aminobutyric acid heptyl ester]
- Control efficacy (%) 7d [1]: 72%
